Results as given in PMC3177041 (Journal of Cachexia, Sarcopenia and Muscle, 2011).

Tested on: male Wistar rats
Assay: chronic mild stress model, 1% sucrose consumption
Type: in vivo, rat
Conditions: stressed and control groups, 10 mg/kg once daily

body mass gain in the 5 weeks of treatment vs vehicle-treated controls: gained less body mass
Structure (SMILES): CN(C)CCCN1c2ccccc2CCc2ccccc21 [imipramine]
